From patent US6107312A, “Thiopyridines for use in the control of helicobacter bacteria” (BYK Gulden Lomberg Chemische Fabrik GmbH, priority 1994, dated 2000)
Values after ≈ are worked out from the molar mass of the structure shown.

Tested on: Helicobacter pylori
Test: activity against Helicobacter pylori (method of Iwahi et al., Columbia agar, growth period of 4 days)
Format: cell-based
Details: Columbia agar (Oxoid); for MIC50: 96 h, read-out: Approximate MIC50

SMILES | MIC50 | Approximate MIC50
CC(=O)n1c(SCc2nccc(SCc3ccco3)c2C)nc2ccccc21 [Compound 7, 1-Acetyl-2-{[[4-(2-furylmethylthio)-3-methyl-2-pyridinyl]methyl]thio}benzimidazole] | ~0.5 µg/mL (≈ 1.22 µM) | 
Cc1c(SCc2ccco2)ccnc1CSc1nc2cccnc2[nH]1 [Compound 1, 2-{[[4-(2-Furylmethylthio)-3-methyl-2-pyridinyl]methyl]thio}-1H-imidazo-[2,3-b]-pyridine] | ~0.1 µg/mL (≈ 0.271 µM) | 
Cc1c(SCc2ccco2)ccnc1CSc1nc2ccccc2n1S(C)(=O)=O [Compound 10, 2-{[[4-(2-Furylmethylthio)-3-methyl-2-pyridinyl]methyl]thio}-1-methylsulfonyl-benzimidazole] | ~0.5 µg/mL (≈ 1.12 µM) | 
C=CC(=O)n1c(SCc2nccc(SCc3ccco3)c2C)nc2ccccc21 [Compound 8, 1-Acryloyl-2-{[[4-(2-furylmethylthio)-3-methyl-2-pyridinyl]methyl]thio}benzimidazole] | ~0.1 µg/mL (≈ 0.237 µM) | 
CCCC(=O)n1c(SCc2nccc(SCc3ccco3)c2C)nc2ccccc21 [Compound 9, 1-n-Butyroyl-2-{[[4-(2-furylmethylthio)-3-methyl-2-pyridinyl]methyl]thio}benzimidazole] |  | ~0.1 µg/mL
